Reference: patent US20030162759A1, “Aldosterone blocker therapy to prevent or treat inflammation-related disorders” (priority 2000, published 2003)
“Also recorded” adds a separate entry of the source.

What was measured:
Assay type in all cases: in vivo, rat
[1] = tested on: angiotensin II infused rats; assay: Assay A angiotensin II infusion model: urinary Na+/K+ ratio (natriuresis index); settings: saline-drinking rats, eplerenone 100 mpk
Text: 24-hours food and fluid intake and urine output measured every day Urine samples collected every day for determination of urinary electrolytes. Electrolyte excretion. The ratio between daily urinary Na^+ excretion and urinary K^+ excretion (U Na^+/K^+ ratio) was used as an index for natriuresis. Urinary Na^+/K^+ ratio was similar in all groups before the start of the treatments, and increased similarly in all animals upon initiation of the high salt diet.

osteopontin = assay: Assay B aldosterone infusion model: serum (circulating) osteopontin at 28 days; settings: NaCl 1% drinking rats with aldosterone and eplerenone
Experimental: Assay B: In vivo Aldosterone Infusion Model Male Sprague Dawley rats (n=39; BW=250 g) […] Uni-nephrectomy performed during implantation of mini-pumps 2. Aldosterone ([…], sc via aizet minipump) 2. […] Sacrifice after 4 weeks.

COX-2 = assay: Assay B aldosterone infusion model: COX-2 mRNA in heart by quantitative RT-PCR (Taqman)
Experimental: Assay B: In vivo Aldosterone Infusion Model Male Sprague Dawley rats (n=39; BW=250 g) […] Uni-nephrectomy performed during implantation of mini-pumps […] Aldosterone ([…], sc via aizet minipump) […] 1. […] Sacrifice after 4 weeks. Hearts were harvested and divided by half through a transverse section at the mid-ventricles: The upper half was stored into formalin. The bottom part was snap-frozen in liquid nitrogen for biochemical analysis. Determination of osteopontin and COX-2 was performed by quantitative RT-PCR (Taqman). Osteopontin was also identified in the heart by immunohistochemistry.

[2] = tested on: Atrial natriuretic factor (ANP); assay: Assay C: ANP mRNA in left ventricle (TaqMan)
Experimental: The procedure of Assay B was expanded upon in a further study. […] Myocardial tissue from animals in each treatment group was examined after 7, 14, or 30 days of treatment.
Potassium chloride supplementation was added to the saline solution in order to prevent the potential hypokalemia associated with aldosterone excess.
At the time of the surgery, an Alzet 2002 osmotic minipump (Alza Corp., Palo Alto, Calif.) containing either vehicle (9% ethanol/87% propylene glycol/4% dH2O) or 1.0 mg/mL d-aldosterone (Sigma Chemical, St. Louis, Mo.) was inserted subcutaneously at the nape of the neck. Aldosterone was administered at a dose of 0.75 g/hour. […] Animals were sacrificed from each group (n=8-13) after 7, 14, or 30 days of treatment. […]
The fluorogenic 5′-nuclease assay (TaqMan PCR) using Applied Biosystems' 7700 Sequence Detection System (Applied Biosystems, Foster City, Calif.) allowed for real time detection/quantitation of a specific gene by monitoring the increase in fluorescence of a gene-specific, dye-labeled oligonucleotide probe. […] When the probe was annealed to the target gene, fluorescence of 6FAM was prevented by the close proximity of TAMRA. The exonuclease activity of Taq polymerase released the dyes from the oligonucleotide probe by displacing the probe from the target sequence resulting in fluorescence excitation in direct proportion to the amount of target message present. […]

[3] = tested on: stroke-prone spontaneously hypertensive rats; assay: Stroke-prone spontaneously hypertensive rats: survival and cerebral injury (FIGS. 37-38); settings: stroke-prone spontaneously hypertensive rats (FIGS. 37, 38)
aldosterone infused rats = assay: Assay B aldosterone infusion model: myocardial fibrosis (interstitial collagen volume fraction, hydroxyproline); settings: aldosterone/salt treatment, 4 weeks
Experimental: Assay B: In vivo Aldosterone Infusion Model Male Sprague Dawley rats (n=39; BW=250 g) […] Uni-nephrectomy performed during implantation of mini-pumps 2. Aldosterone (0.75 mg/hr, sc via aizet minipump) 2. […] 1. […] Sacrifice after 4 weeks. Hearts were stained with hematoxylin&eosin and the collagen specific dye picro-sirius red and were analyzed for determination of interstitial collagen volume fraction and morphologic abnormalities (i.e. necrosis, vascular injury). Hydroxyproline concentration was measured in the frozen hearts.

Row | SMILES | Urinary Na+/K+ ratio (diuretic or natriuretic effect) [1] | Circulating (serum) osteopontin levels (osteopontin) | COX-2 upregulation in myocardium (COX-2; aldosterone infused rats (FIG. 31)) | COX-2 relative mRNA expression (COX-2; heart, quantitative RT-PCR, aldosterone/salt rats, 4 weeks, eplerenone 100 mpk p.o.) | ANP mRNA upregulation ([2]; after 30 days of treatment) | ANP mRNA ([2]; mean ± SEM after 30 days of treatment, relative to cyclophilin expression, eplerenone 100 mg/kg/day) [AU] | Cerebral injury [3] | Myocardial fibrosis (interstitial collagen volume fraction, hydroxyproline concentration) (aldosterone infused rats)
1 | COC(=O)[C@@H]1CC2=CC(=O)CC[C@]2(C)[C@@]23O[C@@H]2C[C@@]2(C)[C@@H](CC[C@@]24CCC(=O)O4)[C@H]13 [eplerenone, Pregn-4-ene-7,21-dicarboxylic acid, 9,11-epoxy-17-hydroxy-3-oxo-, γ-lactone, methyl ester, (7α, 11α, 17β) -] | did not produce a significant diuretic or natriuretic effect | marked decrease in circulating osteopontin levels | prevention by eplerenone of COX-2 upregulation | 1.8±0.36 | significantly reduced | 9.20 ± 2.44 | reduced cerebral injury; also recorded: decrease in cerebral injury | –
2 | C[C@]12CCC(=O)C=C1CC[C@@H]1[C@@H]2[C@@H](O)C[C@]2(C=O)[C@@H](C(=O)CO)CC[C@@H]12 [aldosterone] | – | – | – | – | – | – | – | absence of myocardial fibrosis
